Test system: hepatocytes
Assay: RNA-seq of hepatocytes treated with Phase III failure compounds
Details: hepatocytes
Protocol: RNA-seq was performed to determine the effects of the compounds on hepatocytes.
Significance was determined by the criteria of FPKM≥0.5, a log 2(fold-change)≥1, and a […].

With `CCC(CC)[C@H](NC(C)=O)[C@@H]1[C@H](O)[C@@H](C(=O)O)C[C@H]1NC(=N)N.O.O.O` [peramivir (trihydrate), peramivir] the “RNA-seq results: SLC33A1” value (gene SLC33A1) was −0.02, the “RNA-seq results, SLC35C1” value (gene SLC35C1) was 0.17 and the “RNA-seq results: SLC35C1” value (gene SLC35C1) was 0.07. The “RNA-seq results, SLC39A4” value (gene SLC39A4) was 0.31, the “RNA-seq results: SLC39A4” value (gene SLC39A4) was 0.32 and the “RNA-seq results, SLC40A1” value (gene SLC40A1) was 0.39. For the same compound, the “RNA-seq results: SLC40A1” value (gene SLC40A1) was −0.18, the “RNA-seq results, SLC46A1” value (gene SLC46A1) was 0.08 and the “RNA-seq results: SLC46A1” value (gene SLC46A1) was 0.17. For the same compound, the “RNA-seq results, SLC51A” value (gene SLC51A) was 0.08, the “RNA-seq results: SLC51A” value (gene SLC51A) was −0.03 and the “RNA-seq results, SLC51B” value (gene SLC51B) was 0.29. For the same compound, the “RNA-seq results: SLC51B” value (gene SLC51B) was 0.08, the “RNA-seq results, SLCO1B1” value (gene SLCO1B1) was −0.33 and the “RNA-seq results: SLCO1B1” value (gene SLCO1B1) was −0.23. For the same compound, the “RNA-seq results, SLCO4C1” value (gene SLCO4C1) was −0.39, the “RNA-seq results: SLCO4C1” value (gene SLCO4C1) was −0.05 and the “RNA-seq results, SMAD4” value (gene SMAD4) was −0.2. The “RNA-seq results: SMAD4” value (gene SMAD4) was −0.17, the “RNA-seq results, SMARCB1” value (gene SMARCB1) was 0.11 and the “RNA-seq results: SMARCB1” value (gene SMARCB1) was −0.19. For the same compound, the “RNA-seq results, SNX10” value (gene SNX10) was −0.36, the “RNA-seq results: SNX10” value (gene SNX10) was −0.57 and the “RNA-seq results, SORT1” value (gene SORT1) was −0.15. The “RNA-seq results: SORT1” value (gene SORT1) was −0.12, the “RNA-seq results, SPP2” value (gene SPP2) was −0.12 and the “RNA-seq results: SPP2” value (gene SPP2) was −0.17. For the same compound, the “RNA-seq results, SPRTN” value (gene SPRTN) was −0.17, the “RNA-seq results: SPRTN” value (gene SPRTN) was −0.18 and the “RNA-seq results, ST3GAL5” value (gene ST3GAL5) was −0.19. The “RNA-seq results: ST3GAL5” value (gene ST3GAL5) was −0.11, the “RNA-seq results, STAT1” value (gene STAT1) was −0.31 and the “RNA-seq results: STAT1” value (gene STAT1) was −0.45. The “RNA-seq results, STEAP3” value (gene STEAP3) was 0.03, the “RNA-seq results: STEAP3” value (gene STEAP3) was 0.03 and the “RNA-seq results, STIM1” value (gene STIM1) was 0.1. For the same compound, the “RNA-seq results: STIM1” value (gene STIM1) was −0.07, the “RNA-seq results, SULT2A1” value (gene SULT2A1) was 0.65 and the “RNA-seq results: SULT2A1” value (gene SULT2A1) was −0.07. The “RNA-seq results, SUOX” value (gene SUOX) was −0.18, the “RNA-seq results: SUOX” value (gene SUOX) was −0.01 and the “RNA-seq results, TARS2” value (gene TARS2) was 0.2. The “RNA-seq results: TARS2” value (gene TARS2) was −0.08, the “RNA-seq results, TAT” value (gene TAT) was −0.56 and the “RNA-seq results: TAT” value (gene TAT) was 0.16. For the same compound, the “RNA-seq results, TCIRG1” value (gene TCIRG1) was 0.29, the “RNA-seq results: TCIRG1” value (gene TCIRG1) was 0.39 and the “RNA-seq results, TCTN3” value (gene TCTN3) was −0.04. The “RNA-seq results: TCTN3” value (gene TCTN3) was −0.34, the “RNA-seq results, TDO2” value (gene TDO2) was −0.58 and the “RNA-seq results: TDO2” value (gene TDO2) was −0.14. The “RNA-seq results, TF” value (gene TF) was 0.02, the “RNA-seq results: TF” value (gene TF) was −0.09 and the “RNA-seq results, TFR2” value (gene TFR2) was 0.21. For the same compound, the “RNA-seq results: TFR2” value (gene TFR2) was 0.07, the “RNA-seq results, TGFB1” value (gene TGFB1) was −0.25 and the “RNA-seq results: TGFB1” value (gene TGFB1) was −0.16. For the same compound, the “RNA-seq results, THPO” value (gene THPO) was −0.03, the “RNA-seq results: THPO” value (gene THPO) was 0.03 and the “RNA-seq results, THRB” value (gene THRB) was −0.28. For the same compound, the “RNA-seq results: THRB” value (gene THRB) was −0.18, the “RNA-seq results, TK2” value (gene TK2) was 0.12 and the “RNA-seq results: TK2” value (gene TK2) was 0.15. For the same compound, the “RNA-seq results, TMEM67” value (gene TMEM67) was −0.01, the “RNA-seq results: TMEM67” value (gene TMEM67) was 0.04 and the “RNA-seq results, TMEM135” value (gene TMEM135) was −0.13. The “RNA-seq results: TMEM135” value (gene TMEM135) was −0.41, the “RNA-seq results, TMEM165” value (gene TMEM165) was −0.14 and the “RNA-seq results: TMEM165” value (gene TMEM165) was −0.17. For the same compound, the “RNA-seq results, TMLHE” value (gene TMLHE) was −0.03, the “RNA-seq results: TMLHE” value (gene TMLHE) was −0.50 and the “RNA-seq results, TMPRSS6” value (gene TMPRSS6) was 0.1. For the same compound, the “RNA-seq results: TMPRSS6” value (gene TMPRSS6) was 0.34, the “RNA-seq results, TNFRSF1A” value (gene TNFRSF1A) was 0.25 and the “RNA-seq results: TNFRSF1A” value (gene TNFRSF1A) was −0.13. The “RNA-seq results, TNFSF11” value (gene TNFSF11) was −0.54, the “RNA-seq results: TNFSF11” value (gene TNFSF11) was −0.28 and the “RNA-seq results, TP53” value (gene TP53) was −0.02. For the same compound, the “RNA-seq results: TP53” value (gene TP53) was 0.04, the “RNA-seq results, TTC21B” value (gene TTC21B) was −0.14 and the “RNA-seq results: TTC21B” value (gene TTC21B) was −0.28. For the same compound, the “RNA-seq results, TTPA” value (gene TTPA) was −0.46, the “RNA-seq results: TTPA” value (gene TTPA) was −0.20 and the “RNA-seq results, TTR” value (gene TTR) was 0.19. The “RNA-seq results: TTR” value (gene TTR) was −0.23, the “RNA-seq results, TYMP” value (gene TYMP) was 0.37 and the “RNA-seq results: TYMP” value (gene TYMP) was 0.37. For the same compound, the “RNA-seq results, UBR1” value (gene UBR1) was −0.38, the “RNA-seq results: UBR1” value (gene UBR1) was −0.15 and the “RNA-seq results, UGT1A1” value (gene UGT1A1) was −0.06. For the same compound, the “RNA-seq results: UGT1A1” value (gene UGT1A1) was −0.38, the “RNA-seq results, UGT2B28” value (gene UGT2B28) was 0.09 and the “RNA-seq results: UGT2B28” value (gene UGT2B28) was 0.41. The “RNA-seq results, UNC13D” value (gene UNC13D) was 0.05, the “RNA-seq results: UNC13D” value (gene UNC13D) was 0.44 and the “RNA-seq results, UPB1” value (gene UPB1) was 0.33. The “RNA-seq results: UPB1” value (gene UPB1) was 0.19, the “RNA-seq results, UQCRB” value (gene UQCRB) was 0.17 and the “RNA-seq results: UQCRB” value (gene UQCRB) was −0.18. The “RNA-seq results, UROC1” value (gene UROC1) was −0.25, the “RNA-seq results: UROC1” value (gene UROC1) was −0.26 and the “RNA-seq results, UTRN” value (gene UTRN) was −0.35. The “RNA-seq results: UTRN” value (gene UTRN) was −0.06, the “RNA-seq results, VIPAS39” value (gene VIPAS39) was 0.05 and the “RNA-seq results: VIPAS39” value (gene VIPAS39) was −0.08. For the same compound, the “RNA-seq results, VLDLR” value (gene VLDLR) was 0.62, the “RNA-seq results: VLDLR” value (gene VLDLR) was −0.30 and the “RNA-seq results, VPS13A” value (gene VPS13A) was −0.28. For the same compound, the “RNA-seq results: VPS13A” value (gene VPS13A) was 0.08, the “RNA-seq results, VPS33B” value (gene VPS33B) was 0.18 and the “RNA-seq results: VPS33B” value (gene VPS33B) was 0.13. For the same compound, the “RNA-seq results, WAS” value (gene WAS) was 0.19, the “RNA-seq results: WAS” value (gene WAS) was 0.03 and the “RNA-seq results, WDR35” value (gene WDR35) was −0.19. For the same compound, the “RNA-seq results: WDR35” value (gene WDR35) was −0.03, the “RNA-seq results, XDH” value (gene XDH) was 0.28 and the “RNA-seq results: XDH” value (gene XDH) was 0.17. For the same compound, the “RNA-seq results, YARS2” value (gene YARS2) was 0 and the “YARS2 expression, RNA-seq result” value (gene YARS2) was −0.36.

From patent US20210254056A1, “IDENTIFICATION AND TARGETED MODULATION OF GENE SIGNALING NETWORKS” (CAMP4 THERAPEUTICS CORPORATION, priority 2017, published 2021)
